In patent US9591852B2, “Biofilm disruptive compositions” (McNeil-PPC, Inc., priority 2009, dated 2017):
Read-outs that look alike come from different tables or passages of the source.

System: 48-hour salivary biofilm
Experiment: Biofilm disruption screening assay: 48-hour salivary biofilm on polystyrene peg plate, ATP bioluminescence of bacteria remaining
Type: cell-based
Conditions: for log RLU compound: treated twenty minutes, N=8
Procedure: (§1) A 48-hour salivary biofilm was grown on a polystyrene peg plate substrate (96 pegs, N=8 per test group). The pegs were subsequently treated for twenty minutes with each of the long chain alcohols formulations described above, as well as the negative control. After treatment, viable bacteria remaining on the substrate were removed by sonication using a Ultrasonic processor XL by Misonix (Farmingdale, N.Y.), lysed with Celsis Luminex (Celsis Rapid Detection Rapiscreen (Celsis International PLC, Chicago)) and ATP from the bacteria were measured using a bioluminescence marker Celsis LuminATE (Celsis Rapid Detection Rapiscreen (Celsis International PLC, Chicago)). Data was reported in log RLU (relative light units), where decreasing log RLUs indicates fewer bacteria remaining on the substrate and in M-factor units where M-factor is the difference between the log RLU values of the compound tested and the negative control.
as §1, with “marker.” for “marker”
To determine the concentration dependence of biofilm disruptor activity, a series of formulations was prepared with cis-2-nonen-1-ol concentration ranging from 0.0005% to 0.1%. These formulations were tested against the negative control in the biofilm disruption screening assay described in Examples 1 and 2. Data was reported in log RLU (relative light units) where decreasing log RLUs indicates fewer bacteria remaining on the substrate and in M-factor units where M-factor is the difference between the log RLU values of the compound tested and the negative control. […]

[1] = 20 min, aldehyde 0.05% (w/v), twenty minutes, difference between log RLU of compound and negative control, read-out: M-factor
[2] = unsaturated long chain aldehyde 0.05% (w/v) in water/ethanol/Pluronic F-127
[3] = 20 min, alcohol 0.05% (w/v), twenty minutes, difference between log RLU of compound and negative control, read-out: M-factor
[4] = unsaturated long chain alcohol 0.05% (w/v) in water/ethanol/Pluronic F-127, decreasing log RLU = fewer bacteria remaining

| SMILES | log reduction at 0.05 % [1] | log RLU compound [2] | log reduction at 0.05 % [3] | log RLU compound [4] | also measured |
| --- | --- | --- | --- | --- | --- |
| CC(C)=CCCC(C)C=O (stereo not drawn) [2,6-dimethyl-5-hepten-1-al] | 0.21 | 5.07 log RLU |  |  |  |
| CC/C=C\CCCCO [cis-5-octen-1-ol] |  |  | 0.31 | 5.01 log RLU |  |
| CCCCC/C=C\CCCO [cis-4-decen-1-ol] |  |  | 0.62 | 4.71 log RLU |  |
| CC/C=C\CCO [cis-3-hexen-1-ol] |  |  | 0.06 | 5.22 log RLU |  |
| CCC/C=C/C=O [trans-2-hexenal] | 0.19 | 5.39 log RLU |  |  |  |
| CCC/C=C\CO [cis-2-hexen-1-ol] |  |  | 0.11 | 5.21 log RLU |  |
| CCCCCCCCC/C=C/CO [trans-2-dodecen-1-ol] |  |  | 0.88 | 4.44 log RLU |  |
| CCCC/C=C/C=O [trans-2-heptenal] | 0.06 | 5.52 log RLU |  |  |  |
| CCCCCCCC/C=C/CO [trans-2-undecen-1-ol] |  |  | 0.56 | 4.72 log RLU |  |
| CC/C=C\CCC=O [cis-4-hepten-1-al] | -0.04 | 5.14 log RLU |  |  |  |
| CCC/C=C\CCO [cis-3-hepten-1-ol] |  |  | 0.25 | 5.07 log RLU |  |
| CC/C=C\CCCCC=O [cis-6-nonenal] | 0.44 | 4.84 log RLU |  |  |  |
| CCCCCCCC/C=C/C=O [trans-2-undecenal] | 0.83 | 4.49 log RLU |  |  |  |
| CCCCC/C=C/CO [trans-2-octen-1-ol] |  |  | 0.69 | 4.89 log RLU |  |
| CCC/C=C/CO [trans-2-hexen-1-ol] |  |  | 0.12 | 5.20 log RLU |  |
| CCCCCCC/C=C/CO [trans-2-decen-1-ol] |  |  | 1.45 | 4.13 log RLU |  |
| CCCCCC/C=C/CO [trans-2-nonen-1-ol] |  |  | 0.45 | 4.83 log RLU |  |
| CCCCC/C=C\CCO [cis-3-nonen-1-ol] |  |  | 0.76 | 4.56 log RLU |  |
| CCCCCC/C=C\CO [cis-2-nonen-1-ol] |  |  | 0.76 | 4.57 log RLU | log reduction at 0.1 % (20 min, formulation A, cis-2-nonen-1-ol 0.1% (w/v), vs negative control log RLU 5.63, read-out: M-factor): 0.82; log reduction at 0.05 % (20 min, formulation B, cis-2-nonen-1-ol 0.05% (w/v), vs negative control log RLU 5.63, read-out: M-factor): 0.82; log reduction at 0.025 % (20 min, formulation C, cis-2-nonen-1-ol 0.025% (w/v), vs negative control log RLU 5.63, read-out: M-factor): 0.35; log reduction at 0.01 % (20 min, formulation D, cis-2-nonen-1-ol 0.01% (w/v), vs negative control log RLU 5.63, read-out: M-factor): 0.04; log reduction at 0.005 % (20 min, formulation E, cis-2-nonen-1-ol 0.005% (w/v), vs negative control log RLU 5.63, read-out: M-factor): -0.06; log reduction at 0.001 % (20 min, formulation F, cis-2-nonen-1-ol 0.001% (w/v), vs negative control log RLU 5.63, read-out: M-factor): -0.07; log reduction at 0.0005 % (20 min, formulation G, cis-2-nonen-1-ol 0.0005% (w/v), vs negative control log RLU 5.63, read-out: M-factor): -0.09; log RLU (formulation A, cis-2-nonen-1-ol 0.1% (w/v)): 4.81 log RLU; log RLU (formulation B, cis-2-nonen-1-ol 0.05% (w/v)): 4.82 log RLU; log RLU (formulation C, cis-2-nonen-1-ol 0.025% (w/v)): 5.28 log RLU; log RLU (formulation D, cis-2-nonen-1-ol 0.01% (w/v)): 5.59 log RLU; log RLU (formulation E, cis-2-nonen-1-ol 0.005% (w/v)): 5.69 log RLU; log RLU (formulation F, cis-2-nonen-1-ol 0.001% (w/v)): 5.70 log RLU; log RLU (formulation G, cis-2-nonen-1-ol 0.0005% (w/v)): 5.72 log RLU |
| C=CCCCCCCCCO [9-decen-1-ol] |  |  | 0.97 | 4.35 log RLU |  |
| CCCCCCCCC/C=C/C=O [trans-2-dodecenal] | 1 | 4.58 log RLU |  |  |  |
| C=CC(O)CCCCCCC (stereo not drawn) [1-decen-3-ol] |  |  | 0.86 | 4.46 log RLU |  |
| CCCCCCC/C=C/C=O [trans-2-decenal] | 0.95 | 4.63 log RLU |  |  |  |
| CC/C=C\CCCCCC=O [cis-7-decenal] | 0.33 | 5.25 log RLU |  |  |  |
| CCCCC/C=C/C=O [trans-2-octenal] | 0.32 | 5.26 log RLU |  |  |  |
| CC/C=C\CCCCCO [cis-6-nonen-1-ol] |  |  | 0.72 | 4.60 log RLU |  |
| CCCCC/C=C\CCC=O [cis-4-decenal] | 0.99 | 4.59 log RLU |  |  |  |
| CCCCCC/C=C/C=O [trans-2-nonenal] | 0.92 | 4.66 log RLU |  |  |  |
| C=CC(O)CCCCC (stereo not drawn) [1-octen-3-ol] |  |  | 0.33 | 4.99 log RLU |  |
